Measurements from US20120201762A1, “ORAL CARE COMPOSITION” (COLGATE-PALMOLIVE COMPANY, priority 2009, published 2012).

Tests used:
VSC in whole saliva [1] = assay: Headspace VSC in whole saliva incubated with zinc lactate with and without serine (GC); settings: zinc lactate 0.16%
Method: The effect of zinc lactate and serine on VSC was tested. Whole saliva with tryptophan (0.14%), zinc lactate (0.16%), and when necessary, serine (0.42%), was incubated overnight at 37° C. After 24 h, the samples were allowed to cool to 25° C. The samples were then quantified for headspace VSC using a GC.

indole in whole saliva [2] = assay: Indole production in whole saliva incubated with tryptophan, zinc lactate with and without serine (GC); settings: for Indole (ppm): serine 0.42% where present, whole saliva with tryptophan 0.14%, overnight at 37° C.
Method: The effect of zinc lactate and serine on indole was tested. Whole saliva with tryptophan (0.14%), various concentrations of zinc lactate, and when necessary, serine (0.42%), was incubated overnight at 37° C. After 24 h, the samples were allowed to cool to 25° C. The samples were extracted with hexanes (2 mL) and the organic layer (1 mL) was used for GC quantification.

VSC in whole saliva [3] = assay: Reduction of VSC in whole saliva incubated overnight with cysteine and an amino acid (GC); settings: for VSC Reduction (%): relative to saliva and cysteine alone, 10% of 0.1% amino acid solution added to 50% whole saliva, overnight incubation; for Effect on VSC in saliva (in words): whole saliva with cysteine
Method: The effect of serine and other amino acids on VSC was tested. Whole saliva was incubated overnight with cysteine and an additional amino acid selected from serine, proline, tyrosine, glycine, aspargine, glutamic acid, and histidine. In this experiment, 10% of 0.1% amino acid solution was added to 50% whole saliva. GC measurements were made for VSC.

indole in whole saliva [4] = assay: Reduction of indole in whole saliva incubated with tryptophan and serine (hexanes extraction, GC); settings: whole saliva with tryptophan 0.14%; for Area Under the Curve (AUC), indole by GC: overnight at 37° C., control without serine 642403
Method: The effect of serine on indole was tested. Whole saliva with tryptophan (0.14%) and various concentrations of serine was incubated overnight at 37° C. After 24 h, the samples were allowed to cool to 25° C. The samples were extracted with hexanes and the organic layer was used for GC quantification.

`CC(O)C(=O)[O-].CC(O)C(=O)[O-].[Zn+2]` (stereo not shown) [Zinc Lactate, zinc lactate] was tested, and the “VSC (ppb)” value (VSC in whole saliva [1]; headspace VSC, whole saliva with tryptophan 0.14%, serine 0.42% where present, overnight at 37° C.) was 109.25 ppb, the “Indole (ppm)” value (indole in whole saliva [2]; zinc lactate 0.09%) was 9.99 ppm and the “Indole (ppm)” value (indole in whole saliva [2]; zinc lactate 0.16%) was 5.09 ppm. The “Indole (ppm)” value (indole in whole saliva [2]; zinc lactate 0.23%) was 4.71 ppm.
`N[C@@H](Cc1ccc(O)cc1)C(=O)O` [Tyrosine, tyrosine] was tested, and the “VSC Reduction (%)” value (VSC in whole saliva [3]) was 0.06%.
With `N[C@@H](Cc1c[nH]cn1)C(=O)O` [Histidine, histidine] the “VSC Reduction (%)” value (VSC in whole saliva [3]) was 1.36%.
`N[C@@H](CCC(=O)O)C(=O)O` [Glutamic acid, glutamic acid] was tested, and the “VSC Reduction (%)” value (VSC in whole saliva [3]) was −5.2%.
`O=C(O)[C@@H]1CCCN1` [Proline, proline] was tested, and the “VSC Reduction (%)” value (VSC in whole saliva [3]) was 6.99%.
In the case of `NCC(=O)O` [Glycine, glycine], the “VSC Reduction (%)” value (VSC in whole saliva [3]) is reported as 14%.
`N[C@@H](CO)C(=O)O` [Serine, (2S)-2-amino-3-hydroxypropanoic acid] was tested, and the “VSC Reduction (%)” value (VSC in whole saliva [3]) was 36.56%, the “Effect on VSC in saliva (in words)” value (VSC in whole saliva [3]) was “greatest percent reduction of VSC” and the “Effect on VSC in saliva (in words)” value (VSC in whole saliva [3]; listed as serine) was “able to reduce VSC in saliva”. The “Area Under the Curve (AUC), indole by GC” value (indole in whole saliva [4]; serine 0.21%) was 584720, the “Area Under the Curve (AUC), indole by GC” value (indole in whole saliva [4]; serine 0.42%) was 532053 and the “Area Under the Curve (AUC), indole by GC” value (indole in whole saliva [4]; serine 0.84%) was 542136. The “Effect on amount of indole in saliva (in words)” value (indole in whole saliva [4]) was “able to reduce amount of indole in saliva”, the “Effect of serine added to zinc lactate on VSC production (in words)” value (VSC in whole saliva [1]; serine 0.42%) was “enhances the effect of zinc lactate and reduces VSC production” and the “Effect of serine added to zinc lactate on indole production (in words)” value (indole in whole saliva [2]; various concentrations of zinc lactate, serine 0.42%) was “enhances the effect of zinc lactate and reduces indole production”.
`NC(=O)C[C@H](N)C(=O)O` [Asparagine] was tested, and the “VSC Reduction (%)” value (VSC in whole saliva [3]) was −2.14%.
